From US11214803B2, “Modulators of YAP1 expression” (Ionis Pharmaceuticals, Inc., priority 2019, dated 2022) come the findings set out here.

Strand notation (5' to 3'): a small letter for the sugar, then the base; units joined by * are phosphorothioate-linked, units joined directly phosphodiester-linked; [ ] holds rarer units or linkages, { } end groups; capitals alone tell only the bases. k = constrained ethyl (cEt); [5mC] = 5-methylcytosine; d = 2'-deoxy (DNA) Some results are limits rather than exact numbers.

Common to all, as to type: cell-based
The test system of data set [1] is Yap1 mRNA. Briefly: Dose-dependent inhibition of human Yap1 in A-431 cells (Example 6, 5,000 cells per well, RTS4814). The settings on record: for % UTC 148 nM / % UTC 444 nM / % UTC 1333 nM / % UTC 4000 nM: approximately 48 hours; for Yap1 mRNA, % UTC: 48 hours. The method, then: Modified oligonucleotides described in the studies above were tested at various doses in A-431 cells. Cultured A-431 cells at a density of 5,000 cells per well were treated using free uptake with modified oligonucleotides diluted to concentrations described in the tables below. After approximately 48 hours, Yap1 mRNA levels were measured as previously described using the Human Yap1 primer-probe set RTS4814. Yap1 mRNA levels were normalized to total RNA content, as measured by RIBOGREEN®. Results are presented in the tables below as percent control of the amount of Yap1 mRNA relative to untreated control cells (% UTC). IC50s were calculated using a linear regression on a log/linear plot of the data in excel.

Data set [2] relates to Yap1 mRNA. The experiment in a line: Antisense inhibition of human Yap1 in SNU-449 cells by modified oligonucleotides, single dose (Example 5, RTS36584). The note with it: Yap1 mRNA, percent of untreated control; modified oligonucleotides targeting SEQ ID NO: 1 and 2; Table 47. A digest of the protocol: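 SNU-449 cells (10,000/well) took up 2,000 nM oligonucleotide by free uptake for about 48 h. Yap1 mRNA was measured by qRT-PCR with primer probe set RTS36584 and normalised to RIBOGREEN total RNA. Values are % of untreated control; asterisked oligos target the amplicon region.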

The test system of data set [3] is Yap1 mRNA. The experiment in a line: Antisense inhibition of human Yap1 in A-431 cells by cEt gapmers, single dose (Example 4, RTS4814). The settings on record: Table 16; A-431 cells, 5,000 cells per well, free uptake, 2,000 nM, approximately 48 hours; RTS4814; normalized to RIBOGREEN; Yap1 mRNA relative to untreated control cells. In outline:
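A-431 cells took up 3-10-3 cEt gapmers (16-mer, full phosphorothioate, 5-methylcytosines) by free uptake at 2,000 nM for about 48 h. Yap1 mRNA was quantified by qRT-PCR, normalized to total RNA (RIBOGREEN), and reported as % of untreated control.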

Where [4] appears, read: Table 54, A-431 cells, Yap1 mRNA, linear regression on a log/linear plot.
Where [5] appears, read: Table 54, A-431 cells, free uptake, 148 nM, RTS4814.
Where [6] appears, read: Table 54, A-431 cells, free uptake, 444 nM, RTS4814.
Where [7] appears, read: Table 54, A-431 cells, free uptake, 1333 nM, RTS4814.
The mark [8] stands for this setting: Table 54, A-431 cells, free uptake, 4000 nM, RTS4814.
The mark [9] stands for this setting: Table 55, 148 nM, free uptake, A-431 cells 5,000 cells per well, RTS4814.
The mark [10] stands for this setting: Table 55, 444 nM, free uptake, A-431 cells 5,000 cells per well, RTS4814.
[11] abbreviates: Table 55, 1333 nM, free uptake, A-431 cells 5,000 cells per well, RTS4814.
[12] abbreviates: Table 55, 4000 nM, free uptake, A-431 cells 5,000 cells per well, RTS4814.
The mark [13] stands for this setting: Table 55, A-431 cells 5,000 cells per well, free uptake, RTS4814.
[14] abbreviates: Table 53, A-431 cells, Yap1 mRNA, linear regression on a log/linear plot.
The mark [15] stands for this setting: Table 53, A-431 cells, free uptake, 148 nM, RTS4814.
[16] abbreviates: Table 53, A-431 cells, free uptake, 444 nM, RTS4814.
[17] abbreviates: Table 53, A-431 cells, free uptake, 1333 nM, RTS4814.
[18] abbreviates: Table 53, A-431 cells, free uptake, 4000 nM, RTS4814.

The IC50 is the point on the concentration scale where inhibition reaches its midpoint. Low values mean greater potency in that assay, high ones weaker potency in that assay. As for “715435 (kG*kG*kT*d[5mC]*dT*dT*dG*dT*dT*d[5mC]*dT*dT*dA*kT*kG*kG; antisense) [compound 715435]”, in the data set with Yap1 mRNA [1] (setting [4]), half-maximal inhibition (IC50) was put at 3.4 µM. In addition, the “% UTC 148 nM” value in the data set on Yap1 mRNA [1] (setting [5]) stood at 80 % UTC. In the data set on Yap1 mRNA [1] (setting [6]), the “% UTC 444 nM” value is 67 % UTC. The “% UTC 1333 nM” value in the data set with Yap1 mRNA [1] (setting [7]) is reported as 61 % UTC. In the data set on Yap1 mRNA [1] (setting [8]), the “% UTC 4000 nM” value amounted to 48 % UTC.
Substance “716376 (k[5mC]*kG*kA*dA*dG*dA*dT*dG*d[5mC]*dT*dG*dA*dG*k[5mC]*kT*kG; antisense) [compound 716376]” yielded an IC50 in the data set with Yap1 mRNA [1] (setting [4]) above 4 µM. In the data set on Yap1 mRNA [1] (setting [5]), the “% UTC 148 nM” value came out at 103 % UTC. In addition, the “% UTC 444 nM” value with Yap1 mRNA [1] (setting [6]) was determined as 94 % UTC. In the data set on Yap1 mRNA [1] (setting [7]), the “% UTC 1333 nM” value is reported as 79 % UTC. Moreover, the “% UTC 4000 nM” value with Yap1 mRNA [1] (setting [8]) came to 50 % UTC.
With “716501 (antisense kG*k[5mC]*kA*d[5mC]*dT*dG*dA*dA*dA*dG*dT*dA*d[5mC]*kT*kT*kA) [compound 716501]”, the “Yap1 mRNA, % UTC” value was 91 % UTC in the data set on Yap1 mRNA [1] (setting [9]), 69 % UTC in the data set on Yap1 mRNA [1] (setting [10]), 66 % UTC with Yap1 mRNA [1] (setting [11]) and 55 % UTC in the data set with Yap1 mRNA [1] (setting [12]). The same substance yielded an IC50 in the data set on Yap1 mRNA [1] (setting [13]) above 4 µM.
For “1074754 (k[5mC]*kT*kT*dT*dT*dA*d[5mC]*dA*dT*dT*dA*dG*dG*kA*kA*k[5mC]) [Compound 1074754]”, the “YAP1 (% UT)” value in the data set on Yap1 mRNA [2] was 69 % UT. The “YAP1 (% UTC)” value with Yap1 mRNA [3] was determined as 11 % UTC.
As to “715500 (kA*kA*kG*d[5mC]*d[5mC]*dT*dT*dA*dG*dA*dG*dT*d[5mC]*kA*kA*kT; antisense) [compound 715500]”, it took 3.6 µM to reach half-maximal inhibition with Yap1 mRNA [1] (setting [14]) (IC50). For the same substance, the “% UTC 148 nM” value with Yap1 mRNA [1] (setting [15]) was 97 % UTC. For the same substance, in the data set with Yap1 mRNA [1] (setting [16]), the “% UTC 444 nM” value worked out at 72 % UTC. The “% UTC 1333 nM” value with Yap1 mRNA [1] (setting [17]) is recorded as 67 % UTC. The “% UTC 4000 nM” value in the data set with Yap1 mRNA [1] (setting [18]) is recorded as 48 % UTC.
For “716505 (antisense kG*kA*kT*dT*dT*dA*dA*dT*d[5mC]*dT*dT*dT*d[5mC]*kT*kG*k[5mC]) [compound 716505]”, the IC50 in the data set on Yap1 mRNA [1] (setting [4]) was above 4 µM. For the same substance, the “% UTC 148 nM” value in the data set with Yap1 mRNA [1] (setting [5]) is 83 % UTC. Besides, the “% UTC 444 nM” value in the data set on Yap1 mRNA [1] (setting [6]) is on record as 103 % UTC. Also, in the data set on Yap1 mRNA [1] (setting [7]), the “% UTC 1333 nM” value is given as 82 % UTC. In the data set with Yap1 mRNA [1] (setting [8]), the “% UTC 4000 nM” value was 66 % UTC.
“715433 (kT*kG*kT*dT*d[5mC]*dT*dT*dA*dT*dG*dG*dT*dT*kT*kA*kT; antisense) [compound 715433]” displayed a half-inhibitory concentration (IC50) in the data set with Yap1 mRNA [1] (setting [14]) of 2.5 µM. In addition, the “% UTC 148 nM” value in the data set on Yap1 mRNA [1] (setting [15]) turned out to be 87 % UTC. In addition, the “% UTC 444 nM” value with Yap1 mRNA [1] (setting [16]) was 72 % UTC. Besides, the “% UTC 1333 nM” value with Yap1 mRNA [1] (setting [17]) was 65 % UTC. In the data set with Yap1 mRNA [1] (setting [18]), the “% UTC 4000 nM” value was 40 % UTC.
As to “716503 (antisense kT*kT*kA*dT*dT*dA*dT*dG*dA*dG*dT*dG*dA*kT*k[5mC]*kA) [compound 716503]”, the “Yap1 mRNA, % UTC” value is recorded as 91 % UTC in the data set with Yap1 mRNA [1] (setting [9]), 80 % UTC in the data set on Yap1 mRNA [1] (setting [10]), 67 % UTC in the data set on Yap1 mRNA [1] (setting [11]) and 64 % UTC in the data set with Yap1 mRNA [1] (setting [12]). Also, the 50% inhibitory concentration (IC50) in the data set with Yap1 mRNA [1] (setting [13]) was above 4 µM.
Taken in the same sequence, the figures for “716489 (antisense kA*kG*kT*dT*dA*dA*dT*dT*d[5mC]*dA*dT*dG*d[5mC]*kT*k[5mC]*kG) [compound 716489]” were 84 % UTC, 83 % UTC, 69 % UTC, 61 % UTC and above 4 µM.
